Experimental data published in patent publication US11779560B2 (priority 2020, dated 2023).

Assays:
Conditions in all cases: 10-100 μM concentrations
[1] = tested on: HMEC-1 human dermal endothelial cells; experiment: Mitochondrial stress test (Agilent Seahorse XFe96); assay type: cell-based
Method: A mitochondrial stress test was also conducted to determine the effects of the experimental compounds on cellular mitochondria. Assays were conducted using HMEC-1 human dermal endothelial cells optimized for use with the Agilent Seahorse XFe96 analyzer. HMEC-1 cells were obtained from ATCC and cultured in accordance with the supplier's guidelines: complete cell culture media consisted of MCD 131 supplemented with 10 ng/ml EGF 1 μg/ml hydrocortisone, 10 mM glutamine, 10% FBS, and 1% penicillin/streptomycin. To determine optimal cell seeding densities, cells were seeded in Agilent XF96 cell culture microplates at 80,000 cells/well at the highest concentration. […] Cell viability was assessed using trypan blue exclusion. […] (non-CO2) for 1 hour and imaged with a Cytation 5 imaging multimode plate reader (BioTek instruments) and analyzed using Prism 9.0 (GraphPad Software.) The stress test profile cycled through 18 minute exposures to oligomycin 1 μg/ml, FCCP 2 μM and antimycin A 10 μM/rotenone 1 μM. At the completion of the mitochondrial stress test, cells were imaged and Hoechst positive nuclei were quantified using the Seahorse Cell Analysis software. All data were analyzed using Wave Analysis software (version 2.6.1.53) and Prism 9.0 (GraphPad software). […]

[2] = tested on: mitochondrial electron transport chain and ATP synthase (Complex I-V); experiment: MitoCheck Complex I-V activity assays in isolated mitochondria; assay type: biochemical, bovine
Method: MitoCheck Complex I-V activity assays were conducted in an Agilent Seahorse XFe96 analyzer to determine the effects of compounds on the mitochondrial electron transport chain and ATP synthase in isolated mitochondria. Compounds were screened in a dose dependent manner using 10-point ½ log dilutions in quadruplicate along with a […] for each of the five complexes.
Complex I activity was determined using an assay that measures the rotenone-sensitive rate of NADH oxidation by complex I in isolated bovine heart mitochondria. To prevent oxidation of ubiquinol by complex III, KCN (1 mM) was present to inhibit the downstream electron transport chain. […]
Complex II activity was determined using an assay that measures the succinate dependent rate of DCPIP reduction in isolated bovine heart mitochondria. […]
Complex III activity was determined using an assay measures the rate of cytochrome c reduction by the passage of electrons from complex II to complex III via ubiquinone in isolated bovine heart mitochondria. […]
Complex IV activity was determined using an assay that measures the rate of cytochromec oxidation by complex IV in isolated bovine heart mitochondria. […]
Complex V activity was determined using an assay that measures the rate of […] resulting from a series of coupled reactions linked to the hydrolysis of ATP by complex V in isolated bovine heart mitochondria. […]

[3] = tested on: HMEC-1 human dermal endothelial cells; experiment: Cell TiterGlo ATP Luminescent Cell Viability assay (total cellular ATP); assay type: cell-based
Method: The Cell TiterGlo ATP Luminescent Cell Viability assay (Promega Cat. #G7571) was run to measure total cellular ATP in response to compound treatment. Assays were performed using HMEC-1 human dermal endothelial cells. Compounds were screened using 8-point ½ log dilutions in duplicate in the presence of vehicle.

O=C(CO)NCCCN[C@@H]1CO[C@H]2[C@@H]1OC[C@@H]2O[N+](=O)[O-] [CR-0305, (3S,3aS,6R,6aR)-6-((3-(2-hydroxyacetamido)propyl)amino)hexahydrofuro[3,2-b]furan-3-yl nitrate]
No significant toxicity: Toxicity, mitochondrial stress test [1] | Toxicity, MitoCheck Complex I-V activity [2] | Toxicity, effect of drug on ATP synthesis [3]
